This passage reports IC50 results from US10975084B2, “KDM5 inhibitors” (Merck Sharp & Dohme Corp., priority 2016, dated 2021).

pIC50: −log10 of the molar value.

KDM5B, sequence (Q9UGL1 whole entry): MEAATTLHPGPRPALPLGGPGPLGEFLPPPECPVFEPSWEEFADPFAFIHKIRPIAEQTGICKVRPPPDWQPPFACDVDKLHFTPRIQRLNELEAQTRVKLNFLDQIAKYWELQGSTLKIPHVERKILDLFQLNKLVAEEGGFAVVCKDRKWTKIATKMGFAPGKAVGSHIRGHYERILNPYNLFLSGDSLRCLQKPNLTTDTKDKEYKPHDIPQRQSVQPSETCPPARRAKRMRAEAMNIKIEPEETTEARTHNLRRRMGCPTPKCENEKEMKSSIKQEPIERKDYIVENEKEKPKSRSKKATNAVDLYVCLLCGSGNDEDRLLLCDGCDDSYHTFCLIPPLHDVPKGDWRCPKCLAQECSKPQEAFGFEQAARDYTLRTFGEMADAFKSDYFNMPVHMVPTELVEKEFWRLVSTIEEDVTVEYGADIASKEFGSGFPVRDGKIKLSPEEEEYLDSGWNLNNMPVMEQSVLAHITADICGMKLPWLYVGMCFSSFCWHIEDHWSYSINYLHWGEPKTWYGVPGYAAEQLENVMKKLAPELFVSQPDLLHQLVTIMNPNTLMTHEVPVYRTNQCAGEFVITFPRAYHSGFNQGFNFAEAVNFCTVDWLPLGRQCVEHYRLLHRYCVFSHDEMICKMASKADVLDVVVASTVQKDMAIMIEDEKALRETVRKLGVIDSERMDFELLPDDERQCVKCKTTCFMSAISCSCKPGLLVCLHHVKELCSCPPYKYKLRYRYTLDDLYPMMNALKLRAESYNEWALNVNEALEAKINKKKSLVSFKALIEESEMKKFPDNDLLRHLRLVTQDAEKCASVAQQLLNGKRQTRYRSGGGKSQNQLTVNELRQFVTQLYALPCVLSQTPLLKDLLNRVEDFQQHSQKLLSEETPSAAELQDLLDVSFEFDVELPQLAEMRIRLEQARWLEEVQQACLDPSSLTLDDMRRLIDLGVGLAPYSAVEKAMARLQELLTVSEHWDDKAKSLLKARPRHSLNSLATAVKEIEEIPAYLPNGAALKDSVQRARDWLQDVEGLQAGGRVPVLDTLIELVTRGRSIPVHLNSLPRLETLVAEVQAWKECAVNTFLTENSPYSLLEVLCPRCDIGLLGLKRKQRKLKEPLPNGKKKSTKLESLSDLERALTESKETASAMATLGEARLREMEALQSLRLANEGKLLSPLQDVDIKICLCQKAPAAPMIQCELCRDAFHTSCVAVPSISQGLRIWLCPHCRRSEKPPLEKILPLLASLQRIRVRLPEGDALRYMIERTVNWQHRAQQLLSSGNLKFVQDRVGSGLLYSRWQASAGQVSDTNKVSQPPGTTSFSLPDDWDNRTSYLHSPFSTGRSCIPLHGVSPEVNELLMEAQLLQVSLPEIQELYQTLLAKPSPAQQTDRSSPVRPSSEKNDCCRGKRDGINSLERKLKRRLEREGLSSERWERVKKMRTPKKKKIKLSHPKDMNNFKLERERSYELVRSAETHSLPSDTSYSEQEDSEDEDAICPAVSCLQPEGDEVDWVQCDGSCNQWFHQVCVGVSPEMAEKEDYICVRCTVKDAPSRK

In the assay the target is KDM5B (Homo sapiens (Human), UniProt Q9UGL1). The assay is described as follows: KDM5B TR-FRET Enzyme Activity Assay. The format is biochemical. To be noted: LANCE TR-FRET; 5 nM full-length recombinant KDM5B; ten point titration 100000 nM to 5.08 nM. The essentials:
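Full-length KDM5B from Sf21 cells (5 nM) was preincubated 30 min with compound in HEPES pH 7.3 buffer with ascorbate and 2 μM Fe(II). Reaction with 500 nM biotinylated H3K4Me3 peptide and 500 nM α-ketoglutarate ran 60 min. Product was detected by TR-FRET (Eu-anti-H3K4Me1-2/streptavidin-Dylight 650, 665/615 ratio); IC50 came from a 4-parameter fit.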
For the molecule `CC(C)c1c(-c2cccnc2)[nH]c2ncnn2c1=O` [Example 11-25, 6-(1-methylethyl)-5-pyridin-3-yl[1,2,4]triazolo[1,5-a]pyrimidin-7(4H)-one], the pIC50 was 7.33.
The result for `COC(=O)c1ccc(-c2[nH]c3ncnn3c(=O)c2C(C)C)cc1` [Example 11-79, methyl 4-[6-(1-methylethyl)-7-oxo-4,7-dihydro[1,2,4]triazolo[1,5-a]pyrimidin-5-yl]benzoate] reads 7.71; that for `CC(C)c1c(-c2ccc(N3CCOCC3)nc2)[nH]c2ncnn2c1=O` [Example 11-127, 6-(1-methylethyl)-5-(6-morpholin-4-ylpyridin-3-yl)[1,2,4]triazolo[1,5-a]pyrimidin-7(4H)-one], 7.94; that for `CC(C)c1c(-c2cc3ccccc3n2C)[nH]c2ncnn2c1=O` [Example 11-77, 6-(1-methylethyl)-5-(1-methyl-1H-indol-2-yl)[1,2,4]triazolo[1,5-a]pyrimidin-7(4H)-one], 5.90.
Turning to `CC(C)c1c(-c2ccc(C(=O)N(C)C)cc2)[nH]c2ncnn2c1=O` [Example 11-86, N,N-dimethyl-4-[6-(1-methylethyl)-7-oxo-4,7-dihydro[1,2,4]triazolo[1,5-a]pyrimidin-5-yl]benzamide], the pIC50 is 7.90.
The result for `CC(C)c1c(-c2ccc3cccnc3c2)[nH]c2ncnn2c1=O` [Example 11-73, 6-(1-methylethyl)-5-quinolin-7-yl[1,2,4]triazolo[1,5-a]pyrimidin-7(4H)-one] reads 7.57; that for `CC(C)c1c(-c2cccc(N3CCCCC3)c2)[nH]c2ncnn2c1=O` [Example 11-42, 6-(1-methylethyl)-5-(3-piperidin-1-ylphenyl)[1,2,4]triazolo[1,5-a]pyrimidin-7(4H)-one], 7.13.
As to `COC(=O)c1cccc(-c2[nH]c3ncnn3c(=O)c2C(C)C)c1` [Example 11-80, methyl 3-[6-(1-methylethyl)-7-oxo-4,7-dihydro[1,2,4]triazolo[1,5-a]pyrimidin-5-yl]benzoate], the pIC50 is 7.47.
The same measure for `CC(C)c1c(-c2ccc(F)nc2)[nH]c2ncnn2c1=O` [Example 11-129, 5-(6-fluoropyridin-3-yl)-6-(1-methylethyl)[1,2,4]triazolo[1,5-a]pyrimidin-7(4H)-one]: 7.17; for `CC(C)c1c(-c2ccc(-n3ccnn3)cc2)[nH]c2ncnn2c1=O` [Example 11-95, 6-(1-methylethyl)-5-[4-(1H-1,2,3-triazol-1-yl)phenyl][1,2,4]triazolo[1,5-a]pyrimidin-7(4H)-one]: 8.07.
With `CCc1c(C)[nH]c2nncn2c1=O` [Example 8-37, 6-ethyl-7-methyl[1,2,4]triazolo[4,3-a]pyrimidin-5(8H)-one], the pIC50 was 4.04.
The same measure for `O=c1cc(-c2ccccc2)[nH]c2ncnn12` [Example 8-5, 5-phenyl-[1,2,4]triazolo[1,5-a]pyrimidin-7(4H)-one]: 5.65; for `CC(C)c1c(-c2ccc(CO)nc2)[nH]c2ncnn2c1=O` [Example 11-130, 5-[6-(hydroxymethyl)pyridin-3-yl]-6-(1-methylethyl)[1,2,4]triazolo[1,5-a]pyrimidin-7(4H)-one]: 7.26; for `CC(C)c1c(-c2cnn3c2CCCC3)[nH]c2ncnn2c1=O` [Example 11-53, 6-(1-methylethyl)-5-(4,5,6,7-tetrahydropyrazolo[1,5-a]pyridin-3-yl)[1,2,4]triazolo[1,5-a]pyrimidin-7(4H)-one]: 7.12.
Consider `CC(C)c1c(-c2csc(-c3ccccc3)n2)[nH]c2ncnn2c1=O` [Example 11-136, 6-(1-methylethyl)-5-(2-phenyl-1,3-thiazol-4-yl)[1,2,4]triazolo[1,5-a]pyrimidin-7(4H)-one], for which the pIC50 was 6.33.
Regarding `CC(C)c1c(-c2cnn3ncccc23)[nH]c2ncnn2c1=O` [Example 11-72, 6-(1-methylethyl)-5-pyrazolo[1,5-b]pyridazin-3-yl[1,2,4]triazolo[1,5-a]pyrimidin-7(4H)-one], the pIC50 was 7.70.
The result for `CC(C)c1c(-c2cnn(-c3cccc(Cl)c3)c2)[nH]c2ncnn2c1=O` [Example 11-51, 5-[1-(3-chlorophenyl)-1H-pyrazol-4-yl]-6-(1-methylethyl)[1,2,4]triazolo[1,5-a]pyrimidin-7(4H)-one] reads 8.01; that for `CC(C)c1c(-c2cc(C(C)(C)C)n[nH]2)[nH]c2ncnn2c1=O` [Example 11-135, 5-(3-tert-butyl-1H-pyrazol-5-yl)-6-(1-methylethyl)[1,2,4]triazolo[1,5-a]pyrimidin-7(4H)-one], 7.21.
The result for `CC(C)c1c(C2=CC(C)(C)OC(C)(C)C2)[nH]c2ncnn2c1=O` [Example 11-81, 6-(1-methylethyl)-5-(2,2,6,6-tetramethyl-3,6-dihydro-2H-pyran-4-yl)[1,2,4]triazolo[1,5-a]pyrimidin-7(4H)-one] reads 6.51; that for `CC(C)c1c(-c2ccc(C(F)(F)CO)nc2)[nH]c2ncnn2c1=O` [Example 12-2, 5-[6-(1,1-difluoro-2-hydroxyethyl)pyridin-3-yl]-6-(1-methylethyl)[1,2,4]triazolo[1,5-a]pyrimidin-7(4H)-one], 7.51.
For `CC(C)c1c(-c2cnn(C(C)C)c2)[nH]c2ncnn2c1=O` [Example 11-20, 6-(1-methylethyl)-5-[1-(1-methylethyl)-1H-pyrazol-4-yl][1,2,4]triazolo[1,5-a]pyrimidin-7(4H)-one], the pIC50 is 8.29.
The same measure for `O=c1cc(-c2ccoc2)[nH]c2ncnn12` [Example 8-21, 5-furan-3-yl[1,2,4]triazolo[1,5-a]pyrimidin-7(4H)-one]: 5.39; for `CC(C)c1c(-c2cncc(C(C)(C)O)c2)[nH]c2ncnn2c1=O` [Example 11-121, 5-[5-(1-hydroxy-1-methylethyl)pyridin-3-yl]-6-(1-methylethyl)[1,2,4]triazolo[1,5-a]pyrimidin-7(4H)-one]: 7.36.
On to `CC(C)c1c(C2=CCC(C#N)CC2)[nH]c2ncnn2c1=O` (stereo not drawn) [Example 11-56], for which the pIC50 is 6.96.
Consider `O=c1cc(-c2ccncc2)[nH]c2ncnn12` [Example 8-22, 5-pyridin-4-yl[1,2,4]triazolo[1,5-a]pyrimidin-7(4H)-one], for which the pIC50 was 4.72.
On to `CC(C)c1c(-c2ccn(C)c2)[nH]c2ncnn2c1=O` [Example 11-27, 6-(1-methylethyl)-5-(1-methyl-1H-pyrrol-3-yl)[1,2,4]triazolo[1,5-a]pyrimidin-7(4H)-one], for which the pIC50 was 7.75.
As to `CC(C)c1c(-c2ccc(N3CCCC3)cc2)[nH]c2ncnn2c1=O` [Example 11-94, 6-(1-methylethyl)-5-(4-pyrrolidin-1-ylphenyl)[1,2,4]triazolo[1,5-a]pyrimidin-7(4H)-one], the pIC50 was 7.70.
As to `CC(C)c1c(-c2cnn(Cc3cccnc3)c2)[nH]c2ncnn2c1=O` [Example 11-40, 6-(1-methylethyl)-5-[1-(pyridin-3-ylmethyl)-1H-pyrazol-4-yl][1,2,4]triazolo[1,5-a]pyrimidin-7(4H)-one], the pIC50 was 8.24.
In the case of `O=c1c(C2CCC2)c(-c2ccc(F)cc2)[nH]c2ncnn12` [Example 8-40, 6-cyclobutyl-5-(4-fluorophenyl)[1,2,4]triazolo[1,5-a]pyrimidin-7(4H)-one], the pIC50 is 5.99.
For `CC(C)(C)c1c(-c2cnn(C(C)(C)C)c2)[nH]c2ncnn2c1=O` [Example 11-4, 6-tert-butyl-5-(1-tert-butyl-1H-pyrazol-4-yl)[1,2,4]triazolo[1,5-a]pyrimidin-7(4H)-one], the pIC50 is 6.04.
The result for `CC(C)c1c(-c2cnc(-c3ccc(F)cc3)o2)[nH]c2ncnn2c1=O` [Example 11-113, 5-[2-(4-fluorophenyl)-1,3-oxazol-5-yl]-6-(1-methylethyl)[1,2,4]triazolo[1,5-a]pyrimidin-7(4H)-one] reads 7.76; that for `CC(C)CCn1cc(-c2[nH]c3ncnn3c(=O)c2C(C)C)cn1` [Example 11-146, 5-[1-(3-methylbutyl)-1H-pyrazol-4-yl]-6-(1-methylethyl)[1,2,4]triazolo[1,5-a]pyrimidin-7(4H)-one], 8.28.
On to `CCCc1cc(=O)n2ncnc2[nH]1` [Example 8-6], for which the pIC50 is 4.32.
On to `CC(C)c1c(-c2cnn(Cc3ccccn3)c2)[nH]c2ncnn2c1=O` [Example 11-39, 6-(1-methylethyl)-5-[1-(pyridin-2-ylmethyl)-1H-pyrazol-4-yl][1,2,4]triazolo[1,5-a]pyrimidin-7(4H)-one], for which the pIC50 was 8.23.
As for `CC(C)c1c(-c2cnco2)[nH]c2ncnn2c1=O` [Example 11-139, 6-(1-methylethyl)-5-(1,3-oxazol-5-yl)[1,2,4]triazolo[1,5-a]pyrimidin-7(4H)-one], the pIC50 was 6.71.
In the case of `CC(C)c1c(-c2ccc3ncccc3c2)[nH]c2ncnn2c1=O` [Example 11-74, 6-(1-methylethyl)-5-quinolin-6-yl[1,2,4]triazolo[1,5-a]pyrimidin-7(4H)-one], the pIC50 is 7.83.
Take `CC(C)c1c(-c2cnn(C3CCCCO3)c2)[nH]c2ncnn2c1=O` (stereo not drawn) [Example 11-125, 6-(1-methylethyl)-5-[1-(tetrahydro-2H-pyran-2-yl)-1H-pyrazol-4-yl][1,2,4]triazolo[1,5-a]pyrimidin-7(4H)-one]: the pIC50 is 8.13.
With `CC(C)c1c(-c2cnn(Cc3ccncc3)c2)[nH]c2ncnn2c1=O` [Example 11-15, 6-(1-methylethyl)-5-[1-(pyridin-4-ylmethyl)-1H-pyrazol-4-yl][1,2,4]triazolo[1,5-a]pyrimidin-7(4H)-one], the pIC50 was 8.12.
With `CC(C)n1cc(-c2[nH]c3ncnn3c(=O)c2C2CCC2)cn1` [Example 8-41, 6-cyclobutyl-5-[1-(1-methylethyl)-1H-pyrazol-4-yl][1,2,4]triazolo[1,5-a]pyrimidin-7(4H)-one], the pIC50 was 7.48.
